Laboratory results taken from patent publication EP4342487A2, “PHARMACEUTICAL COMPOSITION COMPRISING GIP DERIVATIVE OR LONG-ACTING CONJUGATE THEREOF FOR PREVENTING OR TREATING PULMONARY DISEASE” (Hanmi Pharm. Co., Ltd., priority 2021, dated 2022).

How the values were obtained:
Assay type in all cases: cell-based, human
A549 cell line = experiment: Inflammation and EMT in A549 cells treated with TGF-β1 and LPS (qPCR); conditions: native GIP 10 µM, long-acting GIP derivative 1 or 10 µM
Method: The A549 cell line, a human alveolar epithelial cell, was used to confirm the inflammatory and fibrosis amelioration effect of long-acting GIP derivatives on COPD in vitro. The purpose of this experiment was to determine the effect of alveolar epithelial cells on epithelial mesenchymal transition (EMT), which is known to be important in the pulmonary fibrosis process.
The A549 cell line was cultured in a F-12K medium supplemented with 10% fetal bovine serum (FBS), 100 µg/mL streptomycin, and 100 U/mL penicillin at a temperature of 37 °C and in 5% carbon dioxide conditions. Cell lines were sequentially treated with TGF-β1 and LPS to induce inflammatory responses and EMT. The native GIP was added at the concentration 10 µM, and the long-acting GIP derivative was diluted at a concentration of 1 or 10 µM and added. As the long-acting GIP derivative, the long-acting GIP conjugate (SEQ ID NO: 17) prepared in Example 3 was used.
RNA was isolated from the A549 cell line after the treatment was completed by using the RNeasy Mini Kit (Qiagen, US), and cDNA was synthesized using the iScript™ cDNA Synthesis Kit (Bio-rad, US). Regarding the synthesized cDNA, the expression level of inflammation and EMT-related genes was confirmed by using the QuantStudio 6 Flex Real-Time PCR System (Applied Biosystems, US). Delta Delta Ct method was used, and beta-actin was used as a housekeeping gene. […]

THP-1 cell line [1] = experiment: Anti-inflammatory effect in LPS-induced THP-1 cells, mRNA level (qPCR); conditions: THP-1, 1 µg/mL LPS; native GIP 10 µM, long-acting GIP derivative 1 or 10 µM; FIG. 2A
Method: To confirm the anti-inflammatory effect of the long-acting GIP derivative on COPD in vitro, a human monocyte/macrophage cell line, THP-1, was used. Macrophages are known to induce the progression of inflammation by secreting cytokines and chemokines at the initial stage of infection and mobilizing other immune cells.
The THP-1 cell line was cultured in a RPMI 1640 medium supplemented with 10% fetal bovine serum (FBS), 100 µg/mL streptomycin, 100 U/mL penicillin, and 0.05 mM β-mercaptoethanol, at a temperature of 37 °C in 5% carbon dioxide conditions. An inflammatory response was induced by adding 1 µg/mL of lipopolysaccharide (LPS) to the cell line, and the effect on the inflammatory response by LPS when treated with native GIP and long-acting GIP derivatives was confirmed at the mRNA level. The native GIP was added at the concentration 10 µM, and the long-acting GIP derivative was diluted at a concentration of 1 or 10 µM and added. As the long-acting GIP derivative, the long-acting GIP conjugate (SEQ ID NO: 17) prepared in Example 3 was used.
RNA was isolated from the THP-1 cell line after the treatment was completed by using the RNeasy Mini Kit (Qiagen, US), and cDNA was synthesized using the iScript™ cDNA Synthesis Kit (Bio-rad, US). […]

THP-1 cell line [2] = experiment: Inflammation-related cytokines in the medium of PMA and LPS-induced THP-1 cells (ELISA); conditions: THP-1, 150 nm PMA and 0.1 µg/mL LPS, native GIP 1 µM, long-acting GIP derivative 0.1 µM or 1 µM, FIG. 2B
Method: Additionally, in order to measure the concentrations of the inflammation-related cytokines IL-6, IL-12/23 p40, IL-1β, and TNF-α in the medium of the THP-1 cell line, 150 nm of phorbol 12-myristate 13-acetate (PMA) and 0.1 µg/mL of LPS were added thereto to induce an inflammatory reaction, and the cells were treated with the native GIP and the long-acting GIP derivative: the native GIP was used at a concentration of 1 µM and the long-acting GIP derivative was diluted to a concentration of 0.1 µM or 1 µM. As the medium, Human IL-6 ELISA Kit (Abcam, US), Human IL-12/23 p40 ELISA Kit (Abcam, US), Human IL-1beta ELISA Kit (Abcam, US), and Human TNF alpha ELISA Kit (Abcam, US)were used for quantification.

Substance: native GIP: hormone composed of 42 amino acids secreted from the K cells of the small intestine (YAEGTFISDYSIAMDKIHQQDFVNWLLAQKGKKNDWKHNITQ; Gastric inhibitory polypeptide; UniProt P09681 52-93, looked up)
- relative expression levels of inflammation-related genes IL-6, IL-12, and TNF-α (A549 cell line; FIG. 3A): significantly decreased
- relative expression levels of EMT marker fibronectin, Col1α1, and Col3α1 (A549 cell line; FIG. 3B): decreased
- relative expression levels of inflammation-related genes IL-6, IL-12, IL-1β, and TNF-α (THP-1 cell line [1]): decreased
- concentrations of the inflammation-related cytokines IL-6, IL-12/23 p40, IL-1β, and TNF-α in the medium (THP-1 cell line [2]): decreased
